Data: EP2022493A1, “Composition comprising at least one optically active phthalamide derivative for controlling animal parasites” (Bayer CropScience AG, priority 2007, dated 2009)

Key:
Lucilia cuprina larvae = test: Lucilia cuprina - test (larvae); format: in vivo; conditions: in Ovis aries, read-out: activity (mortality in %)
Experimental: (§1) Solvent: dimethyl sulfoxide
(§2) To produce a suitable preparation of active compound, 10 mg of active compound are dissolved in 0.5 ml solvent, and the concentrate is diluted with water to the desired concentration.
Approximately 20 -30 (Lucilia cuprina larvae) are transferred into a test tube containing 1cm^3 of minced horse meat and 0.5 ml aqueous dilution of test compound.
After the specified period of time, mortality in % is determined. 100 % means that all the larvae have been killed; 0 % means that none of the larvae have been killed.

Musca domestica = Musca domestica - test; format: in vivo; conditions: adults; for mortality at 100 ppm: application rate of 100ppm; for mortality at 20 ppm: application rate of 20ppm
Experimental: as §1, §2
Prior to the assay, a piece or kitchen sponge is soaked with a mixture of sugar and compound solution and placed into a container. 10 adults (Musca domestica) are placed into the container and closed with a perforated lid.
After the specified period of time, mortality in % is determined. 100 % means that all the flies have been killed; 0 % means that none of the flies have been killed.

[1] = Determination of the logP values by HPLC on reversed-phase column (C 18); format: physicochemical
Experimental: Determination of the logP values:
The lambda max values were determined in the maxima of the chromatographic signals using the UV spectra from 190 nm to 400 nm.

Boophilus microplus = Boophilus microplus - test (injection into adult ticks); format: in vivo; conditions: application rate of 20 µg/animal; injected into the abdomen of adult ticks; seven days
Experimental: Boophilus microplus - test Solvent: dimethylsulfoxide To produce a suitable preparation of active compound, 1 part by weight of active compound is mixed with the stated amount of solvent, and the concentrate is diluted with containing solvent to the desired concentration. Adult ticks (Boophilus microplus) are treated by injected with compound solution of the desired concentration into the abdomen. Ticks are transferred into replica plates and incubated in a climate chamber for seven days. Eggs which are not clearly fertile or infertile are further incubated for another 35 days until larvae hatch from the untreated controls. After the specified period of time, the laying of fertile eggs in % is determined. 100 % means that all eggs have been fertile; 0 % means that none of the eggs have been fertile.

[2] = 0.001 m aqueous nh4hco3/acetonitrile, HPLC, reversed-phase C 18, 40 °C, [c] 0.001 molar aqueous NH4HCO3 solution and acetonitrile at pH 7.8, linear gradient from 10 % to 95 % acetonitrile (v/v)
[3] = 0.1% aqueous phosphoric acid/acetonitrile, HPLC, reversed-phase C 18, 40 °C, [a] 0.1% aqueous phosphoric acid and acetonitrile at pH 2.3, linear gradient from 10 to 95 % (v/v) acetonitrile
[4] = 0.001 m aqueous nh4hco3/acetonitrile, method [c]: 0.001 molar aqueous NH4HCO3 solution and acetonitrile at pH 7.8, linear gradient from 10 % to 95 % acetonitrile (v/v), HPLC reversed-phase C 18, 40 °C
[5] = 0.1% aqueous phosphoric acid/acetonitrile, method [a]: 0.1% aqueous phosphoric acid and acetonitrile at pH 2.3, linear gradient from 10 to 95 % (v/v) acetonitrile, HPLC reversed-phase C 18, 40 °C

Row | Structure (SMILES) | mortality at 100 ppm (Lucilia cuprina larvae) [%] | mortality at 100 ppm (Musca domestica) [%] | chromatographic logP [1, 2] | chromatographic logP [1, 3] | activity (laying of fertile eggs in %) (Boophilus microplus) [%] | chromatographic logP [1, 4] | chromatographic logP [1, 5] | mortality at 20 ppm (Musca domestica) [%]
1 | CSC[C@H](C)NC(=O)c1c(I)cccc1C(=O)Nc1ccc(C(C(F)F)C(F)(F)F)cc1Br (stereo partly shown) [Compound 227] | ≥ 80 | ≥ 80 | 3.54 | 3.51 | ≥ 80 | – | – | –
2 | Cc1cc(C(C(F)(F)F)C(F)(F)F)c(F)cc1NC(=O)c1cccc(Cl)c1C(=O)N[C@@H](C)C[S+](C)[O-] (stereo partly shown) [Compound 414] | ≥ 80 | ≥ 80 | – | – | ≥ 80 | 2.51 | 2.58 | –
3 | Cc1c(NC(=O)c2cccc(Cl)c2C(=O)N[C@@H](C)CS(C)(=O)=O)ccc(C(F)(F)C(F)(F)F)c1F [Compound 363] | ≥ 80 | ≥ 80 | – | 2.82 | ≥ 80 | – | – | –
4 | CCSC[C@H](C)NC(=O)c1c(I)cccc1C(=O)Nc1ccc(C(C(F)F)C(F)(F)F)cc1C (stereo partly shown) [Compound 210] | ≥ 80 | ≥ 80 | 3.62 | 3.63 | ≥ 80 | – | – | –
5 | Cc1c(NC(=O)c2cccc(Cl)c2C(=O)N[C@@H](C)C[S+](C)[O-])ccc(C(C(F)(F)F)C(F)(F)F)c1F (stereo partly shown) [Compound 406] | ≥ 80 | ≥ 80 | – | – | ≥ 80 | 2.41 | 2.5 | –
6 | CCSC[C@H](C)NC(=O)c1c(I)cccc1C(=O)Nc1ccc(C(F)(C(F)F)C(F)(F)F)cc1C (stereo partly shown) [Compound 218] | ≥ 80 | ≥ 80 | 3.96 | 3.96 | ≥ 80 | – | – | –
7 | CCS(=O)(=O)C[C@H](C)NC(=O)c1c(Br)cccc1C(=O)Nc1ccc(C(C)(F)C(F)F)cc1Br (stereo partly shown) [Compound 424] | ≥ 80 | ≥ 80 | – | – | ≥ 80 | – | 3.06 | ≥ 80
8 | CSC[C@H](C)NC(=O)c1c(Br)cccc1C(=O)Nc1ccc(C(F)(C(F)(F)F)C(F)(F)F)c(F)c1C [Compound 398] | ≥ 80 | ≥ 80 | – | – | ≥ 80 | – | 4.31 | –
9 | C[C@@H](CS(C)(=O)=O)NC(=O)c1c(I)cccc1C(=O)Nc1ccc(C(C(F)F)C(F)(F)F)cc1F (stereo partly shown) [Compound 291] | ≥ 80 | ≥ 80 | 2.54 | 2.5 | ≥ 80 | – | – | –
10 | Cc1c(NC(=O)c2cccc(I)c2C(=O)N[C@@H](C)C[S+](C)[O-])ccc(C(F)(F)C(F)(F)F)c1F (stereo partly shown) [Compound 323] | ≥ 80 | ≥ 80 | – | 2.5 | ≥ 80 | – | – | –
11 | CCSC[C@H](C)NC(=O)c1c(I)cccc1C(=O)Nc1ccc(C(C(F)F)C(F)(F)F)cc1Cl (stereo partly shown) [Compound 235] | ≥ 80 | ≥ 80 | 3.79 | 3.76 | ≥ 80 | – | – | –
12 | Cc1cc(C(F)(C(F)F)C(F)(F)F)ccc1NC(=O)c1cccc(Cl)c1C(=O)N[C@@H](C)CS(C)(=O)=O (stereo partly shown) [Compound 371] | ≥ 80 | ≥ 80 | – | – | ≥ 80 | 2.64 | 2.61 | –
13 | CCS(=O)(=O)C[C@H](C)NC(=O)c1c(I)cccc1C(=O)Nc1ccc(C(C(F)F)C(F)(F)F)cc1F (stereo partly shown) [Compound 315] | ≥ 80 | ≥ 80 | 2.69 | 2.65 | ≥ 80 | – | – | –
14 | CCSC[C@H](C)NC(=O)c1c(I)cccc1C(=O)Nc1ccc(C(C(F)F)C(F)(F)F)cc1Br (stereo partly shown) [Compound 243] | ≥ 80 | ≥ 80 | 3.8 | 3.78 | ≥ 80 | – | – | –
15 | CCS(=O)(=O)C[C@H](C)NC(=O)c1c(I)cccc1C(=O)Nc1ccc(C(F)(C(F)F)C(F)(F)F)cc1Cl (stereo partly shown) [Compound 251] | ≥ 80 | ≥ 80 | 3.18 | 3.12 | ≥ 80 | – | – | –
16 | CCS(=O)(=O)C[C@H](C)NC(=O)c1c(Cl)cccc1C(=O)Nc1ccc(C(F)(F)C(F)(F)F)c(F)c1C [Compound 372] | ≥ 80 | – | – | – | ≥ 80 | – | 3.01 | ≥ 80
